Read-outs that look alike come from different tables or passages of the source. Where only a bound is given, the exact number is not on record here.

Data set [1] deals with Leishmania mexicana MNYC/BZ/62/M379 reference strain. The class given is cell-based. On the procedure:
FIG. 3: A plot showing the H2 prodrug activity toward the in vitro growth of Leishmania Mexicana. To obtain a higher sensitivity in this experiment, the MNYC/BZ/62/M379 reference strain, which has a higher sensitivity to H2 than does MHOM/MX/01/Tab3, was used. The number of parasites/ml was determined at 72 hours of incubation using 100 mM of each compound in four replicates. The culture conditions were the same as described in FIG. 1.
The following is a list of Leishmania mexicana growth inhibition activity by the prodrugs compared to H2 and a control.

Data set [2] relates to Leishmania mexicana cultures (Tab3 or M379 strain). Description: elimination of parasites in Leishmania mexicana cultures. The class given is cell-based. The following applies: 3 μg/ml; 10^6 parasites/ml; Dulbecco's medium with 4.5 mg/mL glucose and 10% fetal bovine serum. On the procedure: H2 (3 μg/ml) eliminates more than 90% of the parasites in Leishmania mexicana cultures (Tab3 or M379 strain) with 10^6 parasites/ml in Dulbecco's medium modified with 4.5 mg/mL glucose and 10% fetal bovine serum.

Data set [3] relates to murine cells. In words: in vitro cytotoxicity against murine cells. The class given is cell-based. The following applies: in vitro studies. The source says: (§1) Cytotoxicity against murine cells was not found in in vitro studies or in vivo studies using oral, parenteral, or dermal administration in mice.
Data set [4] concerns microorganisms, parasites, and protozoa, including members of the Leishmania genus. In words: antimicrobial, antiparasitic and leishmanicide activity (general statement). The class given is cell-based. The settings on record: from 0.1 μg/ml to greater than 100 μg/ml. On the procedure:
The N^6-(ferrocenmethyl)quinazoline-2,4,6-triamine compound, which we refer to as H2, presents antimicrobial, antiparasitic, and leishmanicide activity from 0.1 μg/ml to greater than 100 μg/ml. H2 can be used in the treatment of infections caused by microorganisms, parasites, and protozoa, including members of the Leishmania genus in particular.

In data set [5] the test system is Leishmania mexicana strain MHOM/MX/01/Tab3. In words: in vitro growth of Leishmania mexicana, parasite count in Neubauer chamber. The class given is cell-based. As to the method: FIG. 1: The biological activity of H2 toward the in vitro growth of Leishmania mexicana strain MHOM/MX/01/Tab3. A growth curve collected after 72 hours of parasite cultivation in a Neubauer chamber in the presence of the H2 is shown. The H2 concentration is shown on the horizontal axis, whereas the number of parasites/ml is shown on the vertical axis. The experiment was performed at room temperature using high-glucose Dulbecco's Modified Eagle's Medium with 10% fetal bovine serum.
FIG. 2: Photograph obtained using an inverted microscope showing the inhibition of Leishmania growth by H2. The parasite culture shown in the left image was grown under the same conditions described in FIG. 1 but with the absence of H2.
At greater than 5 μg/ml, H2 is lethal to Leishmania in less than 5 hours. The in vitro effect is apparent at 30 minutes after application. The parasite structure is modified such that it loses its characteristic form, loses refringence, becomes spherical, and is incapable of multiplying. H2 has a CL50 of 2.6 μm/ml for the Leishmania mexicana MHOM/MX/01/Tab3 strain. The mechanism of cellular damage could not be identified by means of annexin for concentrations greater than 10 μg/ml; it is thought that a necrosis process rather than apoptosis is likely involved.

In data set [6] the test system is mice. Description: in vivo toxicity studies in mice. The following applies: oral, parenteral, or dermal administration in mice.
Source text: as §1

With `[Fe+2].c1cc[cH-]c1.c1ccc(NC[c-]2cccc2)cc1` [FBC, N-(ferrocenmethyl)aniline, reference compound], the “% of Leishmania Growth Inhibition” value in data set [1] was determined as 32%.
“N^6-(ferrocenmethyl)quinazoline-2,4,6-triamine [Compound H2]”: the parasites eliminated result in data set [2] is given as “more than 90%”. Further, the “cytotoxicity against murine cells” value in data set [3] is “not found”. In addition, the “concentration at which antimicrobial, antiparasitic, and leishmanicide activity is presented” value in data set [4] is at least 0.1 µg/mL. The “% of Leishmania Growth Inhibition” value in data set [1] (72 hours of incubation, 100 mM of each compound, four replicates, M379 strain (FIG. 3)) amounted to 100%. For the same compound, the “effect on parasite culture (inverted microscope, FIG. 2)” value in data set [5] (1 μg/ml H2, conditions of FIG. 1) was “clear lack of growth and destruction of the parasite”. Besides, in data set [5] (H2 at greater than 5 μg/ml), the “time until lethal to Leishmania” value is reported as “less than 5 hours”. Besides, in data set [5] (Leishmania mexicana MHOM/MX/01/Tab3 strain), the CL50 is 2.6 μm/ml. The “speed of killing the total amount of parasites compared to meglumine antimoniate, metronidazole or hydroxyurea” value in data set [5] (faster than previously described compounds, at doses ten-fold lower or less) is recorded as “up to 10 fold”. Further, the “time at which the in vitro effect is apparent after application” value in data set [5] (in vitro) was 30 min. Moreover, the cytotoxicity in vivo entry in data set [6] is recorded as “not found”.

The values above are taken from patent US8664384B2, “N6-(ferrocenmethyl)quinazolin-2,4,6-triamina (H2) and the derivatives and prodrugs thereof as antileishmanial, antiprotozoal, antiparasitic and antimicrobial agents” (priority 2010, dated 2014).
